Test results taken from ChEMBL document CHEMBL1136349, “Identification of a monoacid-based, cell permeable, selective inhibitor of protein tyrosine phosphatase 1B” (Bioorg Med Chem Lett, 2003).

Biological target: T1, Tyrosine-protein phosphatase non-receptor type 1 (Homo sapiens, UniProt P18031)
T1 sequence (P18031 whole entry): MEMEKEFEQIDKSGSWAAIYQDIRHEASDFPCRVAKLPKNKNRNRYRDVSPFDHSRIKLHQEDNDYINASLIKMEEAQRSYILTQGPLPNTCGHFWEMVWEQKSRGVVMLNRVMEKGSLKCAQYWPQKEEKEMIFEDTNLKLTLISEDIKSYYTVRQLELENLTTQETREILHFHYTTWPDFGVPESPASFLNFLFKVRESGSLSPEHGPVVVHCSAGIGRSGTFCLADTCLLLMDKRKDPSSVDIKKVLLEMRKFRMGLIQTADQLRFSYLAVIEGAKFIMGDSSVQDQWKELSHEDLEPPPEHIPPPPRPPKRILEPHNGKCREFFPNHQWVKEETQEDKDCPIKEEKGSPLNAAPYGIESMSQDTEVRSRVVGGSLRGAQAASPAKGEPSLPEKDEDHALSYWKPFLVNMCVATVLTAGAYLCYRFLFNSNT
Assay: Inhibition of Protein-tyrosine phosphatase 1B
Conditions: not given

Compound | Ki [µM]
COC(=O)c1c(O)cccc1OCCCCNC(=O)[C@H](Cc1ccc(NS(=O)(=O)C(F)(F)F)cc1)NC(C)=O | > 200
COC(=O)c1c(O)cccc1OCCCCNC(=O)[C@H](Cc1ccc(OCC(=O)O)c(N)c1)NC(C)=O | > 200
COC(=O)c1c(O)cccc1OCCCCNC(=O)[C@H](Cc1ccc(NC(=O)C(=O)O)cc1)NC(C)=O | 6.1
COC(=O)c1c(O)cccc1OCCCCNC(=O)[C@H](Cc1ccc(/C=C\C(=O)O)cc1)NC(=O)OC(C)(C)C | > 200

Continued, values first:

Ki [µM] | Compound
> 200 | COC(=O)c1c(O)cccc1OCCCCNC(=O)[C@H](Cc1ccc(OC(CO)C(=O)O)cc1)NC(=O)OC(C)(C)C (stereo not given in full)
2.2 | COC(=O)c1c(O)cccc1OCCCCNC(=O)[C@H](Cc1ccc(OCC(=O)O)c(C(=O)O)c1)NC(C)=O
> 200 | COC(=O)c1c(O)cccc1OCCCCNC(=O)[C@H](Cc1ccc(NCC(=O)O)cc1)NC(=O)OC(C)(C)C
> 200 | COC(=O)c1c(O)cccc1OCCCCNC(=O)[C@H](Cc1ccc(NC(=O)C(F)(F)F)cc1)NC(C)=O
> 200 | COC(=O)c1c(O)cccc1OCCCCNC(=O)[C@H](Cc1ccc(NC(=O)CO)cc1)NC(C)=O
2 | CCCCC(C)NC(=O)[C@H](Cc1ccc(OCC(=O)O)c(C2N=NN=N2)c1)NC(=O)[C@H](Cc1ccccc1)NC(=O)OC(C)(C)C (stereo not given in full)
> 200 | COC(=O)c1c(O)cccc1OCCCCNC(=O)[C@H](Cc1ccc(NC(=O)c2ncccc2O)cc1)NC(C)=O

System: Caco-2
Assay: Papp in Caco-2 permeability assay.
Type: functional, cell-based
Conditions: Homo sapiens

Compound | Papp [cm/s]
COC(=O)c1c(O)cccc1OCCCCNC(=O)[C@H](Cc1ccc(OCC(=O)O)cc1)NC(=O)OC(C)(C)C | 1e-05
COC(=O)c1c(O)cccc1OCCCCNC(=O)[C@H](Cc1ccc(NC(=O)C(=O)O)cc1)NC(=O)OC(C)(C)C | < 1e-06
COC(=O)c1c(O)cccc1OCCCCNC(=O)[C@H](Cc1ccc(OCC(=O)O)c(O)c1)NC(C)=O | > 1e-05
CCc1cc(CC(NC(C)=O)C(=O)NCCCCOc2cccc(O)c2C(=O)OC)ccc1N(C(=O)C(=O)O)c1ccccc1C(=O)O (stereo not given) | < 1e-06
